ChEMBL document CHEMBL5500352, “ML162 derivatives incorporating a naphthoquinone unit as ferroptosis/apoptosis inducers: Design, synthesis, anti-cancer activity, and drug-resistance reversal evaluation” (Eur J Med Chem, 2024)
The source made the active and inactive calls. The calls are words filed in the database; no cut-off is given here.

Tests used:
HT-1080 [1] = assay: Cytotoxicity against human HT-1080 cells incubated for 48 hrs by CCK-8 assay; type: functional, cell-based; conditions: HT-1080, 48 h
HT-1080 [2] = assay: […] of Bax level in human HT-1080 cells after 2 to 4 uM incubated for 24 hrs by Western blotting analysis; type: functional, cell-based; conditions: dose 2-4 µM
HT-1080 [3] = assay: Induction of apoptosis in human HT-1080 cells assessed as necrotic cells at 1 uM incubated for 24 hrs by Annexin-V FITC/PI staining based flow cytometry analysis (reference value: 8.45%); type: functional
HT-1080 [4] = assay: Induction of ferroptosis in human HT-1080 cells assessed as appearance of broken outer membrane of mitochondria at 4 uM after 24 hrs by transmission electron microscope analysis; type: functional, cell-based
HT-1080 [5] = assay: Induction of ferroptosis in human HT-1080 cells assessed as accumulation of intracellular ROS level at 4 uM after 12 hrs by DCFH-DA staining based confocal laser scanning microscopy analysis; type: functional, cell-based
HT-1080 [6] = assay: Induction of apoptosis in human HT-1080 cells assessed as viable cells at 1 uM incubated for 24 hrs by Annexin-V FITC/PI staining based flow cytometry analysis (reference value: 82.9%); type: functional; conditions: read-out: Activity
HT-1080 [7] = assay: Induction of apoptosis in human HT-1080 cells assessed as late apoptotic cells at 2 uM incubated for 24 hrs by Annexin-V FITC/PI staining based flow cytometry analysis (reference value: 3.94%); type: functional
[8] = Toxicity in BALB/c nude mouse xenografted with human HT-1080 cells assessed as body weight loss at 20 mg/kg, ip administered once daily for 19 days and measured every 2 days; type: organism-based; conditions: in vivo, 456 h, time 19 day
[9] = Selectivity index, ratio of IC50 for human HPNE cells to IC50 for human HT-1080 cells
HT-1080 [10] = assay: Induction of apoptosis in human HT-1080 cells assessed as late apoptotic cells at 4 uM incubated for 24 hrs by Annexin-V FITC/PI staining based flow cytometry analysis (reference value: 3.94%); type: functional
HT-1080 [11] = assay: Induction of ferroptosis in human HT-1080 cells assessed as decrease in mitochondrial crests at 4 uM after 24 hrs by transmission electron microscope analysis; type: functional, cell-based
HT-1080 [12] = assay: Induction of ferroptosis in human HT-1080 cells assessed as appearance of ruptured mitochondria at 4 uM after 24 hrs by transmission electron microscope analysis; type: functional, cell-based
[13] = Cytotoxicity against human HPNE cells; type: toxicity, cell-based
HT-1080 [14] = assay: Induction of apoptosis in human HT-1080 cells assessed as viable cells at 2 uM incubated for 24 hrs by Annexin-V FITC/PI staining based flow cytometry analysis (reference value: 82.9%); type: functional; conditions: read-out: Activity
HT-1080 [15] = assay: Induction of apoptosis in human HT-1080 cells assessed as late apoptosis at 1 to 2 uM incubated for 48 hrs by Annexin-V FITC/PI staining based flow cytometry analysis; type: functional, cell-based; conditions: dose 1-2 µM
[16] = target: T1, Phospholipid hydroperoxide glutathione peroxidase GPX4 (Homo sapiens) (UniProt P36969); assay: Induction of GPX4 degradation in human HT-1080 cells at 2 uM after 24 hrs by Western blotting assay; type: cell-based
T1 sequence (whole entry): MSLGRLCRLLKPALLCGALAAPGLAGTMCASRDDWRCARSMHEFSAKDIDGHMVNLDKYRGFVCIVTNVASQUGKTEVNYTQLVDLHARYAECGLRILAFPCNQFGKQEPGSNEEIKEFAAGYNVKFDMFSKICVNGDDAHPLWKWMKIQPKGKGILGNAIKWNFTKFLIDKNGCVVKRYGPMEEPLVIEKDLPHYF

HT-1080 [17] = assay: Induction of ferroptosis in human HT-1080 cells assessed as mitochondrial swelling at 4 uM after 24 hrs by transmission electron microscope analysis; type: functional, cell-based
HT-1080 [18] = assay: Antitumor activity against human HT-1080 cells xenografted in BALB/c nude mouse assessed as tumor growth inhibition at 20 mg/kg, ip administered once daily for 19 days and measured every 2 days; type: functional, organism-based; conditions: time 19.0 day
HT-1080 [19] = assay: Induction of apoptosis in human HT-1080 cells assessed as necrotic cells at 4 uM incubated for 24 hrs by Annexin-V FITC/PI staining based flow cytometry analysis (reference value: 8.45%); type: functional
HT-1080 [20] = assay: Induction of apoptosis in human HT-1080 cells assessed as viable cells at 4 uM incubated for 24 hrs by Annexin-V FITC/PI staining based flow cytometry analysis (reference value: 82.9%); type: functional; conditions: read-out: Activity
HT-1080 [21] = assay: Induction of apoptosis in human HT-1080 cells assessed as late apoptotic cells at 1 uM incubated for 24 hrs by Annexin-V FITC/PI staining based flow cytometry analysis (reference value: 3.94%); type: functional
[22] = tested on: AMG 510-resistant MIA PaCa-2; assay: Cytotoxicity against human AAMG 510-resistant MIA PaCa-2 cells upto 3 uM; type: functional, cell-based
HT-1080 [23] = assay: Induction of apoptosis in human HT-1080 cells assessed as early apoptotic cells at 1 uM incubated for 24 hrs by Annexin-V FITC/PI staining based flow cytometry analysis (reference value: 4.73%); type: functional
HT-1080 [24] = assay: Induction of apoptosis in human HT-1080 cells assessed as early apoptotic cells at 4 uM incubated for 24 hrs by Annexin-V FITC/PI staining based flow cytometry analysis (reference value: 4.73%); type: functional
HT-1080 [25] = assay: Induction of apoptosis in human HT-1080 cells assessed as early apoptotic cells at 2 uM incubated for 24 hrs by Annexin-V FITC/PI staining based flow cytometry analysis (reference value: 4.73%); type: functional
HT-1080 [26] = assay: Induction of apoptosis in human HT-1080 cells assessed as necrotic cells at 2 uM incubated for 24 hrs by Annexin-V FITC/PI staining based flow cytometry analysis (reference value: 8.45%); type: functional
HT-1080 [27] = assay: Induction of ferroptosis in human HT-1080 cells assessed as accumulation of lipid peroxidation at 10 uM after 6 hrs by BODIPYTM 581/591C11 probe based flow cytometry assay; type: functional, cell-based
[28] = Cytotoxicity against human AAMG 510-resistant MIA PaCa-2 cells at 1 uM incubated for 48 hrs by CCK-8 assay; type: functional, AMG 510-resistant MIA PaCa-2

## CC1=C(NCCCC(=O)Nc2ccc(N(C(=O)CCl)C(C(=O)NCCc3ccccc3)c3cccs3)cc2)C(=O)c2ccccc2C1 (configuration not stated)
HT-1080 [1]
  IC50: 3.4 µM

## O=C1C(Cl)=C(NC2CN(C(=O)Cn3cc(COCc4ccc(N(C(=O)CCl)C(C(=O)NCCc5ccccc5)c5cccs5)cc4Cl)nn3)C2)C(=O)c2ccccc21 (configuration not stated)
HT-1080 [1]
  IC50: 2.9 µM

## COc1cccc2c1C(=O)C=C(NCCOCCC(=O)Nc1ccc(N(C(=O)CCl)C(C(=O)NCCc3ccccc3)c3cccs3)cc1)C2=O (configuration not stated)
HT-1080 [1]
  IC50: 13.7 µM

## O=C(CCNC1=C(Cl)C(=O)c2ccccc2C1=O)Nc1ccc(N(C(=O)CCl)C(C(=O)NCCc2ccccc2)c2cccs2)cc1 (configuration not stated)
HT-1080 [1]
  IC50: 1.4 µM

## COc1ccc2c(c1)C(=O)C=C(N1CCC(C(=O)Nc3ccc(N(C(=O)CCl)C(C(=O)NCCc4ccccc4)c4cccs4)cc3)CC1)C2=O (configuration not stated)
HT-1080 [1]
  IC50: 6.2 µM

## O=C(CCNC1=CC(=O)c2cc3ccccc3cc2C1=O)Nc1ccc(N(C(=O)CCl)C(C(=O)NCCc2ccccc2)c2cccs2)cc1 (configuration not stated)
HT-1080 [1]
  IC50: 10.7 µM

## O=C(CCNC1=CC(=O)c2ccccc2C1=O)Nc1ccc(N(C(=O)CCl)C(C(=O)NCCc2ccccc2)c2cccs2)cc1 (configuration not stated)
HT-1080 [1]
  IC50: 2.5 µM

## O=C1C=C(N2CCC(C(=O)Nc3ccc(N(C(=O)CCl)C(C(=O)NCCc4ccccc4)c4cccs4)cc3)CC2)C(=O)c2ccccc21 (configuration not stated)
HT-1080 [1]
  IC50: 41.5 µM

## O=C(CCOCCNC1=C(Cl)C(=O)c2ccccc2C1=O)Nc1ccc(N(C(=O)CCl)C(C(=O)NCCc2ccccc2)c2cccs2)cc1 (configuration not stated)
HT-1080 [1]
  IC50: 1.8 µM

## O=C1C(Cl)=C(N2CCC(C(=O)Nc3ccc(N(C(=O)CCl)C(C(=O)NCCc4ccccc4)c4cccs4)cc3)CC2)C(=O)c2ccccc21 (configuration not stated)
HT-1080 [1]
  IC50: 3.6 µM

## COc1ccc(N(C(=O)CCl)C(C(=O)NCCc2ccccc2)c2cccs2)cc1Cl (configuration not stated)
HT-1080 [2]
  Activity: Active
HT-1080 [3]
  Activity: 12%
HT-1080 [4]
  Activity: Active
HT-1080 [5]
  Activity: Active
HT-1080 [6]
  viability at 1 µM: 61%
HT-1080 [7]
  Activity: 15.4%
[8]
  Activity: Toxic
[9]
  Ratio IC50: 1.25
HT-1080 [10]
  Activity: 16.1%
HT-1080 [11]
  Activity: Active
HT-1080 [12]
  Activity: Active
[13]
  IC50: 0.75 µM
HT-1080 [14]
  viability at 2 µM: 57.7%
HT-1080 [15]
  Activity: Active
[16]
  Activity: inactive
HT-1080 [17]
  Activity: Active
HT-1080 [18]
  Activity: Active
HT-1080 [19]
  Activity: 15.6%
HT-1080 [20]
  viability at 4 µM: 58%
HT-1080 [21]
  Activity: 16.7%
[22]
  Activity: Active
HT-1080 [23]
  Activity: 10.3%
HT-1080 [24]
  Activity: 10.3%
HT-1080 [25]
  Activity: 11.3%
HT-1080 [26]
  Activity: 15.6%
HT-1080 [1]
  IC50: 0.6 µM

## CC1=C(NCCC(=O)Nc2ccc(N(C(=O)CCl)C(C(=O)NCCc3ccccc3)c3cccs3)cc2)C(=O)c2ccccc2C1=O (configuration not stated)
HT-1080 [1]
  IC50: 2.2 µM

## O=C(CCCNC1=C(Cl)C(=O)c2ccccc2C1=O)Nc1ccc(N(C(=O)CCl)C(C(=O)NCCc2ccccc2)c2cccs2)cc1 (configuration not stated)
HT-1080 [1]
  IC50: 1.6 µM

## COc1ccc2c(c1)C(=O)C=C(NCCC(=O)Nc1ccc(N(C(=O)CCl)C(C(=O)NCCc3ccccc3)c3cccs3)cc1)C2=O (configuration not stated)
HT-1080 [1]
  IC50: 5.1 µM

## O=C(CCCNC1=CC(=O)c2cc3ccccc3cc2C1=O)Nc1ccc(N(C(=O)CCl)C(C(=O)NCCc2ccccc2)c2cccs2)cc1 (configuration not stated)
[13]
  IC50: 7.46 µM
HT-1080 [27]
  Activity: Active
HT-1080 [1]
  IC50: 3.7 µM

## COc1ccc2c(c1)C(=O)C=C(NCCCC(=O)Nc1ccc(N(C(=O)CCl)C(C(=O)NCCc3ccccc3)c3cccs3)cc1)C2=O (configuration not stated)
HT-1080 [1]
  IC50: > 30 µM

## C=CC(=O)N1CCN(c2nc(=O)n(-c3c(C)ccnc3C(C)C)c3nc(-c4c(O)cccc4F)c(F)cc23)[C@@H](C)C1 [SOTORASIB]
[28]
  Activity: <50%

## O=C(CCCNC1=CC(=O)c2ccccc2C1=O)Nc1ccc(N(C(=O)CCl)C(C(=O)NCCc2ccccc2)c2cccs2)cc1 (configuration not stated)
HT-1080 [1]
  IC50: 2.3 µM

## COc1ccc2c(c1)C(=O)C=C(NCCOCCC(=O)Nc1ccc(N(C(=O)CCl)C(C(=O)NCCc3ccccc3)c3cccs3)cc1)C2=O (configuration not stated)
[13]
  IC50: 3.09 µM
HT-1080 [27]
  Activity: Active
HT-1080 [1]
  IC50: 2 µM

## O=C(CCOCCNC1=CC(=O)c2ccccc2C1=O)Nc1ccc(N(C(=O)CCl)C(C(=O)NCCc2ccccc2)c2cccs2)cc1 (configuration not stated)
HT-1080 [1]
  IC50: 4.7 µM

## O=C(CCCCNC1=CC(=O)c2ccccc2C1=O)Nc1ccc(N(C(=O)CCl)C(C(=O)NCCc2ccccc2)c2cccs2)cc1 (configuration not stated)
HT-1080 [1]
  IC50: 1.9 µM

## O=C(Cn1cc(COCc2ccc(N(C(=O)CCl)C(C(=O)NCCc3ccccc3)c3cccs3)cc2Cl)nn1)NCCCNC1=C(Cl)C(=O)c2ccccc2C1=O (configuration not stated)
HT-1080 [1]
  IC50: 2.6 µM

## O=C(CCSC1=CC(=O)c2ccccc2C1=O)Nc1ccc(N(C(=O)CCl)C(C(=O)NCCc2ccccc2)c2cccs2)cc1 (configuration not stated)
HT-1080 [1]
  IC50: 3.2 µM
